Results reported in article PMC12508057, “Discovery of ETI41 and ETI60: novel selective endosomal Toll-like receptor inhibitors for the treatment of autoimmune diseases” (Experimental & Molecular Medicine, 2025).
Where two headings read alike, the source gives them in different places.

Assays:
[1] = tested on: IL-23-induced psoriasis; test: IL-23-induced psoriasis in mice; assay type: in vivo, mouse; settings: 60 mg/kg oral daily; for Improvement of disease symptoms: versus anti-IL-17A antibody IP
Method: Six-week-old female C57BL/6J mice were assigned to the following treatment groups: vehicle (n = 5), IMQ (n = 5), ETI41 (n = 4) and ETI60 (n = 5). The mice were obtained from Orient Bio to evaluate the effects of ETI41 and ETI60 on induced psoriasis-like symptoms. This study was approved by the Institutional Animal Care and Use Committee (IACUC; approval no. 2014-0007). Psoriasis was induced using Aldara cream (3M Pharmaceuticals), which was applied topically at 62.5 mg/cm² daily from the day after hair removal until the fourth day. Mice were orally administered 60 mg/kg ETI41 or ETI60 daily commencing on the second day of induction. For IL-23-induced psoriasis, the mice were assigned to the following treatment groups: vehicle (n = 5), IL-23 (n = 5), ETI41 (n = 5), ETI60 (n = 5) and anti-IL-17 Ab (n = 5). Recombinant mouse IL-23 (0.25 mg/kg; BioLegend) was administered via intradermal injection around the ear daily, starting the day after hair removal and continuing until the eighth day. Positive control mice received intraperitoneal (IP) injections of 30 mg/kg anti-mouse IL-17A antibody (BioLegend) on days 2, 5 and 8, while test group mice were administered daily oral doses of 60 mg/kg of ETI41 or ETI60. Changes in body weight and Psoriasis Area and Severity Index (PASI) scores (erythema, scaling and thickness) were recorded daily. Mice were initially anesthetized in an induction chamber with a gas mixture of 4% isoflurane in 70:30 […] and O2, delivered at a flow rate of 0.8 l/min. Subsequently, the isoflurane concentration was reduced to 2%, and the mice were euthanized under anesthesia via endotracheal intubation. Skin samples were collected, fixed and stained with hematoxylin and eosin for histological analysis. Dermal and epidermal thicknesses were measured using a Leica DMi8 microscope (Leica). Immunohistochemical analyses were performed using primary antibodies against CD68 (R&D Systems, MAB101141), Ki-67 (Cell Signaling Technology, 12202), IL-17A (Novus Biologicals, NBP1-72027) and IL-23 (Novus Biologicals, NBP1-76697), followed by detection using biotinylated secondary antibodies (Vector Laboratories) and diaminobenzidine (Vector Laboratories) visualization. Fluorescence measurements for IL-23-induced psoriasis were performed using primary antibodies against CD68 and Ki-67, followed by Alexa Fluor-conjugated secondary antibodies (Life Technologies). Fluorescence was analyzed using a Leica DMi8 microscope.
Anti-IL17A antibody (Ab, 60 µg) was administered by IP injection as a positive control on days 2, 5 and 8. […] CD68 and Ki-67 expression patterns were determined in skin sections from a representative of each group using immunofluorescence. i Ear skin and epidermis thickness, CD68 expression and percentage of Ki-67 cells were examined from 4’,6-diamidino-2-phenylindole-stained cells. Statistical differences between the induced case and other cases were analyzed and verified using a one-tailed Student’s t-test (*P < 0.05, **P < 0.01, ***P < 0.001).
Next, we investigated the therapeutic efficacy of ETI41 and ETI60 in an IL-23-induced mouse model of psoriasis. Psoriasis was induced through intradermal injections of recombinant murine IL-23. As a positive control, an IL-17A antibody was administered intraperitoneally at a dose of 30 mg/kg on days 2, 5 and 8 (Fig. 4f). ETI41 or ETI60 was orally administered daily at a dose of 60 mg/kg. […] These findings indicate that ETI41 and ETI60 effectively alleviate the progression of psoriasis, either through direct involvement of TLR7 or through an indirect involvement of the IL-23–Th17 axis.

[2] = MTT assay, cell survival in RAW 264.7; assay type: cell-based; settings: mouse, RAW 264.7 cell line, read-out: LC50
Method: After 24 h, the supernatant was removed, and 500 μg/ml of 3-[4,5-dimethylthiazol-2-yl]-2,5 diphenyl tetrazolium bromide (MTT) solution (Invivogen) was added. After a 3 h incubation, the supernatant was removed, and DMSO was added to dissolve the formazan dye.
One-tailed paired Student’s t-tests were performed using Microsoft Excel (Microsoft). […] The therapeutic index was calculated as […]. Animal experimental results are expressed as mean ± standard deviation and analyzed using SPSS v.20 (IBM SPSS Statistics). Homogeneity of variance was assessed using Levene’s test.
Data are from at least three independent experiments (n = 3) and statistical differences between the induced case and other cases were analyzed and verified using a one-tailed Student’s t-test (*P < 0.05, **P < 0.01, ***P < 0.001).

Compound | Body weight [1] | CD68 expression [1] | Ear thickness [1] | Epidermal thickness [1] | Ki-67 keratinocyte proliferation [1] | Improvement of disease symptoms [1] | CC50 at 24 h [2] [µM] | CC50 at 24 h ([2]; RAW 264.7 cells) [µM]
Cc1cc2c(N)c3c(nc2n1CCCN(C)C)CCCCCC3 [ETI41] | without significant differences | significantly decreased | significantly decreased | significantly decreased | significantly decreased | comparable to or better than the anti-IL-17A antibody | 67.2 | 
COc1ccc2c3c(N)c4c(nc3n(CCCN(C)C)c2c1)CCCC4 [ETI60] | without significant differences | significantly decreased | significantly decreased | significantly decreased | significantly decreased | comparable to or better than the anti-IL-17A antibody |  | 51.2
